Measured values from paper PMC6718736, “Validation of in vitro methods for human cytochrome P450 enzyme induction: Outcome of a multi-laboratory study” (Toxicology in Vitro, 2019).
Read-outs that look alike come from different tables or passages of the source.

Experiments:
CYP1A2 = CYP1A2 enzyme induction assay in cryopreserved primary human hepatocytes (PHH); type: in vitro ADME; settings: for Prediction in vivo inducer: Cmax/F2 >0.5 criterion; for Assigned classification CYP1A2: PHH;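 on Assigned classification CYP1A2: code 1 means positive inducer and 0 means non-inducer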
[1] = Solubility by nephelometry (EURL ECVAM); type: physicochemical
Excerpt: In addition to the visual inspection performed by the validation laboratories as described in the SOP, EURL ECVAM introduced nephelometry for systematic solubility determination of the 13 validation set chemicals. Nephelometry uses a laser beam and the principle of Tyndall effect light scatter to detect turbidity due to insolubility. The nephelometer method used formazin as reference item (1, 5, 10 and 20 nephelometric turbidity units (NTU)) to calculate the relative turbidity (RTU) of the validation set of chemicals. To the naked eye, 20 NTU is perceptible, while the nephelometer was sensitive to 5 NTU, with 1 NTU equivalent to background (solvent/medium blank).

[2] = Solubility by visual inspection (DMSO stock solution and assay medium); type: physicochemical; settings: assay medium
Protocol: The SOPs relied on visual inspection for solubility observation. […] The absence of precipitation in the medium was checked pre- and post-incubation (24 hours) by centrifugation of the sample and observation of any precipitation (pellet residue).

CYP3A4 [3] = test: CYP3A4 enzyme induction assay in cryopreserved primary human hepatocytes (PHH); settings: for Assigned classification CYP3A4: PHH
[4] = cited from earlier work
CYP3A4 [5] = settings: cited from earlier work
CYP2B6 [6] = settings: cited from earlier work
CYP = CYP isoforms induced; ref Abadie et al. (2009), Richert et al. (2010), Preissner et al. (2010), Hoffmann et al. (2014); cited from earlier work
CYP2B6 [7] = test: CYP2B6 enzyme induction assay in cryopreserved primary human hepatocytes (PHH); type: in vitro ADME; settings: for Assigned classification CYP2B6: PHH;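 on Assigned classification CYP2B6: code 1 means positive inducer and 0 means non-inducer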
[8] = human in vivo, CYP named without remark = induced, ref references in the cell, Washington University database, Hoffmann et al. (2014), Pelkonen et al. (2008), Hukkanen et al. (2012)

SMILES: O=C1Nc2ccc(Cl)cc2[C@@](C#CC2CC2)(C(F)(F)F)O1 [Efavirenz]
- Prediction in vivo inducer (CYP1A2; CYP1A2, PHH): No
- Prediction in vivo inducer (CYP1A2; CYP1A2, PHH, listed as efavirenz): non-inducers
- Induction in vitro (CYP1A2; CYP1A2, PHH, positive in one donor in each of the three laboratories): No
- Assigned classification CYP1A2 (CYP1A2; Lab 1, batch 0 6 A): 0
- Assigned classification CYP1A2 (CYP1A2; Lab 1, batch 4 0 8): 0
- Assigned classification CYP1A2 (CYP1A2; Lab 1, batch 8 0 8): 0
- Assigned classification CYP1A2 (CYP1A2; Lab 2, batch 0 6 A): 0
- Assigned classification CYP1A2 (CYP1A2; Lab 2, batch 4 0 8): 0
- Assigned classification CYP1A2 (CYP1A2; Lab 2, batch 8 0 8): 0
- Assigned classification CYP1A2 (CYP1A2; Lab 3, batch 0 6 A): 0
- Assigned classification CYP1A2 (CYP1A2; Lab 3, batch 4 0 8): 0
- Assigned classification CYP1A2 (CYP1A2; Lab 3, batch 8 0 8): 0
- nephelometry finding in assay medium ([1]; 40 μg/ml, the two media): insoluble suspensions
- HepaRG medium stability ([1]; ECVAM nephelometry, HepaRG medium, ^2 = solubility limit): 20 µg/mL
- PHH medium stability ([1]; ECVAM nephelometry, ^2 = solubility limit): 40^2 μg/mL
- PHH medium stability ([1]; ECVAM nephelometry, ^2 = solubility limit, listed as efavirenz): 40 µg/mL
- HepaRG medium stability ([2]; Lab 1, visual observation): 20 µg/mL
- HepaRG medium stability ([2]; Lab 2, visual observation): 40 µg/mL
- HepaRG medium stability ([2]; Lab 3, visual observation): 40 µg/mL
- PHH medium stability ([2]; Lab 4, visual observation): 40 µg/mL
- PHH medium stability ([2]; Lab 5, visual observation): 40 µg/mL
- PHH medium stability ([2]; Lab 6, visual observation): 40 µg/mL
- F2 (CYP3A4 [3]; CYP3A4, PHH): 14.1 µM
- Induction in vitro (CYP3A4 [3]; CYP3A4, PHH): Yes
- Prediction in vivo inducer (CYP3A4 [3]; CYP3A4, PHH): Yes
- Assigned classification CYP3A4 (CYP3A4 [3]; Lab 1, batch 0 6 A): 1
- Assigned classification CYP3A4 (CYP3A4 [3]; Lab 1, batch 4 0 8): 1
- Assigned classification CYP3A4 (CYP3A4 [3]; Lab 1, batch 8 0 8): 1
- Assigned classification CYP3A4 (CYP3A4 [3]; Lab 2, batch 0 6 A): 1
- Assigned classification CYP3A4 (CYP3A4 [3]; Lab 2, batch 4 0 8): 1
- Assigned classification CYP3A4 (CYP3A4 [3]; Lab 2, batch 8 0 8): 1
- Assigned classification CYP3A4 (CYP3A4 [3]; Lab 3, batch 0 6 A): 1
- Assigned classification CYP3A4 (CYP3A4 [3]; Lab 3, batch 4 0 8): 1
- Assigned classification CYP3A4 (CYP3A4 [3]; Lab 3, batch 8 0 8): 1
- Cmax ([4]; human in vivo plasma concentration, normal dose): 9.1 to 12.6 µM
- Cmax ([4]; human in vivo, normal dose (Table 10)): 9.1 to 12.6 µM
- Induction in vivo (CYP3A4 [5]; CYP3A4, human in vivo reference classification (Table 12)): Yes
- CYP induction in vivo literature reference: CYP3A4 (CYP3A4 [5]; [8]): CYP3A4
- Induction in vivo (CYP2B6 [6]; CYP2B6, human in vivo reference classification): Yes
- CYP induction in vivo literature reference: CYP2B6 (CYP2B6 [6]; [8]): CYP2B6
- CYP induction in vitro (human hepatocytes) (CYP): CYP2B6, CYP3A4
- F2 (CYP2B6 [7]; CYP2B6, PHH): 4.69 µM
- Induction in vitro (CYP2B6 [7]; CYP2B6, PHH): Yes
- Prediction in vivo inducer (CYP2B6 [7]; CYP2B6, PHH): Yes
- Prediction in vivo inducer (CYP2B6 [7]; CYP2B6, PHH, Cmax/F2 >0.5 criterion): positive
- Assigned classification CYP2B6 (CYP2B6 [7]; Lab 1, batch 0 6 A): 1
- Assigned classification CYP2B6 (CYP2B6 [7]; Lab 1, batch 4 0 8): 1
- Assigned classification CYP2B6 (CYP2B6 [7]; Lab 1, batch 8 0 8): 1
- Assigned classification CYP2B6 (CYP2B6 [7]; Lab 2, batch 0 6 A): 1
- Assigned classification CYP2B6 (CYP2B6 [7]; Lab 2, batch 4 0 8): 1
- Assigned classification CYP2B6 (CYP2B6 [7]; Lab 2, batch 8 0 8): 0
- Assigned classification CYP2B6 (CYP2B6 [7]; Lab 3, batch 0 6 A): 1
- Assigned classification CYP2B6 (CYP2B6 [7]; Lab 3, batch 4 0 8): 0
- Assigned classification CYP2B6 (CYP2B6 [7]; Lab 3, batch 8 0 8): 0
